US7863271B2, “2-aminobenzoxazole carboxamides as 5HT3 modulators” (Albany Molecular Research, Inc., priority 2006, dated 2011)
Structures can show the parent of a compound that is named as a salt.

What was measured:
5-HT3 receptors = biological target: T1, 5-HT3 receptors (Mus musculus, UniProt P23979); experiment: Bezold-Jarisch assay in vivo: inhibition of serotonin induced bradycardia; conditions: read-out: % Inhibition @ dose of test substance (p.o.); for inhibition at 1 mg/kg: 1 mg/kg p.o.; for inhibition at 1 mg/kg / inhibition at 3 mg/kg: 5-HT (0.1 mg/kg IV)-induced bradycardia 60 min later; for inhibition at 3 mg/kg: 3 mg/kg p.o.
T1 construct: from tissue; host or cells: whole animal: male or female CD-1(Crl.) mice
T1 sequence (P23979 24-489): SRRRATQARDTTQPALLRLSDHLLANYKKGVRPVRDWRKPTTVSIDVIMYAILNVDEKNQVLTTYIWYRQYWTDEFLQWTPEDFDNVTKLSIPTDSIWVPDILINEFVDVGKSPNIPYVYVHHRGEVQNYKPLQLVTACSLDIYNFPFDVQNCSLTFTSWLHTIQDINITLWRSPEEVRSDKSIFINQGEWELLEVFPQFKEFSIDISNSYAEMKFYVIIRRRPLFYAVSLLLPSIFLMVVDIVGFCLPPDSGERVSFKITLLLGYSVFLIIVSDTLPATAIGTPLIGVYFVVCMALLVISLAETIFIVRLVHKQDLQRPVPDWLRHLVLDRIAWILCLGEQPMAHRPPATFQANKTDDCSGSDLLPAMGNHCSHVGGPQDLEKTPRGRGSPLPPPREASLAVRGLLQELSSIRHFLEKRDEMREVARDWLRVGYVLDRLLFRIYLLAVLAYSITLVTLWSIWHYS
Experimental: Bezold-Jarisch Assay in vivo. […] Arch. Int. Pharmacodyn. 277: 235-252, 1985]. Test substances and vehicle [2% Tween 80] were each administered orally (0.3 to 3 mg/kg) to a group of 5 male or female CD-1(Crl.) mice each weighing 24±2 g. A dosing volume of 10 mL/kg was used. Sixty minutes later, 5-HT (0.1 mg/kg IV)-induced bradycardia was recorded in urethane (2225-2500 mg/kg IP, given 10 minutes before 5-HT)-anesthetized animals.
In vivo 5-HT3 Antagonism in the mouse (Bradycardia Reflex)

5-HT3 [1] = biological target: T2, 5-HT3 (Homo sapiens, UniProt P46098); experiment: Compound affinity for the human 5-HT3 receptor (Assay B), SPA radioligand binding with [9-methyl-3H]BRL-43694; set-up: purchased Perkin Elmer
T2 sequence (P46098 24-478): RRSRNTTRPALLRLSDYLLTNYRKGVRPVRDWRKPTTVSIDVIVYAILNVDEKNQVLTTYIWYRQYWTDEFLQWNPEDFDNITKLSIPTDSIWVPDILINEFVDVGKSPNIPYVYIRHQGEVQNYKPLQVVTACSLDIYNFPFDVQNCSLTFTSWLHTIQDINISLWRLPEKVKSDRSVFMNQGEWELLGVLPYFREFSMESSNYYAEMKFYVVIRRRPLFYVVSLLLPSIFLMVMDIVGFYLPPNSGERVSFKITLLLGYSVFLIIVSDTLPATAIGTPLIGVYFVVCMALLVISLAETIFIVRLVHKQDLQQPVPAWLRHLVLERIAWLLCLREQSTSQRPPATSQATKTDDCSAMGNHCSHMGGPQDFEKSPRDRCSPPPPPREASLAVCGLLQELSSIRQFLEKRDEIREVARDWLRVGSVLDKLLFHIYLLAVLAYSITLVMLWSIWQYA
How it was run: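 Ten competitor concentrations in duplicate; specific binding (total minus nonspecific) fitted for IC50, converted to Ki by Cheng-Prusoff.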

5-HT3 [2] = biological target: T2, 5-HT3; experiment: 5-HT3 inhibitor screen with potency threshold (not further specified); assay type: binding
5-HT3 [3] = biological target: T2, 5-HT3; experiment: Compound affinity for the human 5-HT3 receptor (Assay A), [3H]-GR65630 radioligand binding; set-up: host or cells: N1E-155 cell lines (so in the source); conditions: annotated (A): Assay A
Experimental: Compound Affinity for the human 5-HT3 Receptor (Assay A)
Compounds were tested by MDS Pharma Services—Taiwan Ltd., 158 Li-The Road, Peitou, Taipei, Taiwan 112 R.O.C. In order to evaluate the relative affinity of the various compounds for the human 5-HT3 receptor, N1E-155 cell lines were developed to express the target protein. For binding, these cells were homogenized, centrifuged and washed with buffer (20 mM HEPES, 150 mM NaCl, pH 7.4) then suspended in 0.5 mL of buffer and [3H]-GR65630 added at a concentration of 3.5×10^-10 M. An initial single concentration of 10^-7 M of the test compound was then added. Incubation was carried out at room temperature for 60 minutes at 25° C. then was terminated by rapid removal of the incubation medium. Radioactivity was assessed using liquid scintillation spectrophotometry after exposure to scintillation cocktail for at least three hours. […] Ki values were then calculated from the Cheng-Prusoff equation. In all of the above binding studies the non-specific determinant was MDL-72222 (1.0 μM).

[4] = Assay B (method B unless otherwise annotated), read-out: 5-HT3 Ki

| Compound | Ki (5-HT3 [1]) | inhibition at 3 mg/kg (5-HT3 receptors) | also measured |
| --- | --- | --- | --- |
| C[C@H]1COC[C@H](C)N1c1nc2c(C(=O)NC3CC4CCCC(C3)N4C)cccc2o1 (stereo partly drawn) [Example 75, Endo-N-(9-Methyl-9-azabicyclo[3.3.1]nonan-3-yl)-2-((3S,5S)-3,5-dimethylmorpholino)benzoxazole-4-carboxamide Hydrochloride] | 0.59 nM |  | inhibition at 1 mg/kg (5-HT3 receptors): 98% |
| CN(C)c1nc2c(C(=O)N[C@@H]3CN4CCC3CC4)cccc2o1 [Example 8, (S)—N-(quinuclidine-8-yl)-2-(dimethylamino)benzoxazole-4-carboxamide Hydrochloride] |  |  | inhibition at 0.3 mg/kg (5-HT3 receptors): 83%; Ki (5-HT3 [1]; [4]): 18.1 nM |
| C[C@H]1CN(C)CCN1c1nc2c(C(=O)NC3CC4CCCC(C3)N4C)cccc2o1 (stereo partly drawn) [Example 55, Endo-N-(9-Methyl-9-azabicyclo[3.3.1]nonan-3-yl)-2-((S)-2,4-dimethylpiperazin-1-yl)benzoxazole-4-carboxamide Hydrochloride] | 28.8 nM |  | level of potency established as the threshold for the screen (5-HT3 [2]): has not exhibited the level of potency established as the threshold for the screen |
| Nc1nc2c(C(=O)NC3CN4CCC3CC4)cccc2o1 [Example 93, (S)—N-(Quinulidin-8-yl)-2-aminobenzoxazole-4-carboxamide Hydrochloride] | 12.1 nM | 85% |  |
| Nc1nc2c(C(=O)NC3CN4CCC3CC4)cc(Cl)cc2o1 (stereo not shown) [Example 103, Hydrochloride] | 5.1 nM | 97% |  |
| C[C@H]1COCCN1c1nc2c(C(=O)NC3CC4CCCC(C3)N4C)cccc2o1 (stereo partly drawn) [Example 49, Endo-N-(9-Methyl-9-azabicyclo[3.3.1]nonan-3-yl)-2-((S)-3-methylmorpholino)benzoxazole-4-carboxamide Hydrochloride] |  |  | inhibition at 1 mg/kg (5-HT3 receptors): 86% |
| Nc1nc2c(C(=O)NC3CN4CCC3CC4)cc(F)cc2o1 [Example 116, (S)—N-(Quinulidin-8-yl)-2-amino-6-fluorobenzoxazole-4-carboxamide Hydrochloride] | 9.4 nM | 97% |  |
| CSc1nc2c(C(=O)N[C@H]3C[C@H]4CCC[C@@H](C3)N4C)cccc2o1 [Example 13, Endo-N-(9-Methyl-9-azabicyclo[3.3.1]non-3-yl)-2-methylthiobenzoxazole-4-carboxamide Hydrochloride] |  |  | Ki (5-HT3 [3]): 4.6 nM |
| C[C@@H]1CNC[C@H](C)N1c1nc2c(C(=O)NC3CC4CCCC(C3)N4C)cccc2o1 (relative stereo) [Example 50, Endo-N-(9-Methyl-9-azabicyclo[3.3.1]nonan-3-yl)-2-((2S*,6R*)-2,6-dimethylpiperazin-1-yl)benzoxazole-4-carboxamide Hydrochloride] | 13.6 nM | 80% |  |
| CSc1nc2c(C(=O)N[C@@H]3CN4CCC3CC4)cccc2o1 [Example 14, (S)—N-(quinuclidine-8-yl)-2-(methylthio)benzoxazole-4-carboxamide Hydrochloride] |  |  | Ki (5-HT3 [3]): 2.6 nM |
| CN1C2CCCC1CC(NC(=O)c1cccc3oc(N4CCOC[C@@H]4C(C)(C)C)nc13)C2 (stereo partly drawn) [Example 68, Endo-N-(9-Methyl-9-azabicyclo[3.3.1]nonan-3-yl)-2-((S)-3-tert-butylmorpholino)benzoxazole-4-carboxamide Hydrochloride] |  |  | Ki (5-HT3 [1]; [4]): 2 nM |
| CC(C)C[C@H]1CN(c2nc3c(C(=O)NC4CC5CCCC(C4)N5C)cccc3o2)CCN1 (stereo partly drawn) [Example 74, Endo-N-(9-Methyl-9-azabicyclo[3.3.1]nonan-3-yl)-2-((3S)-3-isobutylpiperazine-1-yl)benzoxazole-4-carboxamide Hydrochloride] |  |  | Ki (5-HT3 [1]; [4]): 72.9 nM |
